pIC50: −log10 of the molar value. Values belong to the compound of their own block, whether it stands above or below them.
Assays:
[1] = test system: Aspergillus fumigatus IFM46895; assay: Murine Aspergillus infection model (oral administration); format: in vivo; conditions: cyclophosphamide-compromised male mice; 10 mg/kg orally, 7 times; observed 21 days after infection
Procedure: As Test Compounds, the compound of Example 3 and Comparative Compound 1 were used.
(§1) Spores of Aspergillus fumigatus IFM46895 were cultured on a potato dextrose agar medium at 30° C. for a week. The recovered spores were suspended in a sterile physiological saline solution containing 0.05% Tween 80, which was then diluted to prepare an inoculum solution.
(§2) Male mice (4 week-old, 5 mice/group) were administered intraperitoneally with 200 mg/kg of cyclophosphamide 4 days before infection and 100 mg/kg on the following day after the infection to obtain transient compromised condition. Each 0.2 mL of the inoculum solution was inoculated into the tail vein of each mouse to induce infection (about 1×10^5 CFU/mouse). The Test Compounds were dissolved in a small amount of 0.1 mol/L hydrochloric acid, and the solution was diluted with a sterile distilled water to obtain a 1 mg/mL solution. The solution was administered orally at the dose of 10 mL/kg body weight of mouse (10 mg/kg body weight). The administrations were conducted once 2 hours after the infection and once daily for the following 6 days, totaling 7 times. To a group receiving no Test Compounds, an equal amount of a sterile physiological saline solution was administered. Viability of the mice was observed and recorded for 21 days after infection.

human CYP2C19 = biological target: T1, human CYP2C19 (Homo sapiens, UniProt P33261); assay: Inhibitory effect on CYP2C19; format: in vitro ADME; conditions: microsome from insect cells expressing human CYP2C19, dibenzylfluorescein, 37° C. 30 min, 72 to 0.0329 μmol/L
T1 construct: host or cells: insect cells (microsomes)
T1 sequence (P33261 whole entry): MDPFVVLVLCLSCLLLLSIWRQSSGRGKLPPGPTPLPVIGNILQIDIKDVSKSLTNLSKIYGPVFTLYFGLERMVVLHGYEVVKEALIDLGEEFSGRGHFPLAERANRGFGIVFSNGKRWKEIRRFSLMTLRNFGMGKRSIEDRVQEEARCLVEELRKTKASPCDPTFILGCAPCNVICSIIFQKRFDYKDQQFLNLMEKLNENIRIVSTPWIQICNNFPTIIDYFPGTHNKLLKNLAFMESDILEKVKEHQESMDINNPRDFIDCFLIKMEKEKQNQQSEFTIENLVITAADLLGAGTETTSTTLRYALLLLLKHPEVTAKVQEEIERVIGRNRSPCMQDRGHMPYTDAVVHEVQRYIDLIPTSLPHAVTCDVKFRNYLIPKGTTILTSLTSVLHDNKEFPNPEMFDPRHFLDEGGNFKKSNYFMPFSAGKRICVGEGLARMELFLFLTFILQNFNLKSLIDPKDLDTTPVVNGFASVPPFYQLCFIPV
Procedure: (§3) Inhibitory effects of the compound of Example 3 and Comparative Compound 1 on human hepatic drug-metabolizing enzyme CYP2C19 were compared. A microsome prepared from insect cells expressing human CYP2C19 was used. Dibenzylfluorescein was used as a substrate. The reaction was conducted in a phosphate buffer solution (100 mmol/L, pH 7.4) including final concentrations of 15 nmol/L for the enzyme, 1.0 μmol/L for the substrate, 1.55 mmol/L for nicotinamide adenine dinucleotide phosphate oxidized form (NADP+), 3.3 mmol/L for glucose-6-phosphate, 3.3 mmol/L for magnesium chloride and 0.4 Units/mL for glucose-6-phosphate dehydrogenase (G6PDH). The concentrations of the respective compounds in the reaction solution were prepared in a 3-fold dilution series with a final concentration range of 72 to 0.0329 μmol/L. The reaction solutions were incubated at 37° C. for 30 min. Then the reaction was terminated by a 2 mol/L sodium hydroxide aqueous solution, and the reactant was further incubated at 37° C. for 2 hours. The enzyme activity was determined by measuring fluorescence with wavelength of 535 nm using excitation wavelength of 485 nm. The inhibitory effect was represented as IC50. Tranylcypromine was used as a positive control.

Vero cells = assay: Growth inhibition test on Vero cells (XTT); format: cell-based; conditions: 50 μg/mL, 3 days culture, XTT absorbance versus control
Procedure: As Test Compounds, the compounds of Example 1 and Example 2 and Comparative Compound 1 were used.
The cytotoxicity of the compounds was evaluated using Vero cells. The respective Test Compounds were dissolved in dimethylsulfoxide (DMSO) to prepare solutions at 10 mg/mL. The solutions were diluted with E′MEM with 10% FBS to a final concentration of 50 μg/mL and placed onto a 96-well plate. The cells were suspended in E′MEM with 10% FBS and seeded onto the 96-well plate at 3000 cells/well and then cultured in a CO2 incubator at 37° C. for 3 days. The growth of Vero cells was evaluated by an assay using 2,3-bis-(2-methoxy-4-nitro-5-sulfophenyl)-5-[(phenylamino)carbonyl]-2H-tetrazolium (inner salt) monosodium salt (“XTT”). Namely, an XTT solution containing 1 mg/mL of XTT and 25 μmol/L of phenazine methosulfate (PMS) was added to each well. After incubating in a CO2 incubator for 2 hours, the absorbance at 450 nm (reference at 655 nm) of the respective wells was measured by a microplate reader. The T/C (%) was calculated from the absorbance ratios of the control (without the Compound) and the respective wells.

human CYP3A4 = biological target: T2, human CYP3A4 (Homo sapiens, UniProt P08684); assay: Inhibitory effect on CYP3A4; format: in vitro ADME; conditions: microsome from insect cells expressing human CYP3A4, dibenzylfluorescein, 37° C. 15 min, 72 to 0.0329 μmol/L
T2 construct: host or cells: insect cells (microsomes)
T2 sequence (P08684 whole entry): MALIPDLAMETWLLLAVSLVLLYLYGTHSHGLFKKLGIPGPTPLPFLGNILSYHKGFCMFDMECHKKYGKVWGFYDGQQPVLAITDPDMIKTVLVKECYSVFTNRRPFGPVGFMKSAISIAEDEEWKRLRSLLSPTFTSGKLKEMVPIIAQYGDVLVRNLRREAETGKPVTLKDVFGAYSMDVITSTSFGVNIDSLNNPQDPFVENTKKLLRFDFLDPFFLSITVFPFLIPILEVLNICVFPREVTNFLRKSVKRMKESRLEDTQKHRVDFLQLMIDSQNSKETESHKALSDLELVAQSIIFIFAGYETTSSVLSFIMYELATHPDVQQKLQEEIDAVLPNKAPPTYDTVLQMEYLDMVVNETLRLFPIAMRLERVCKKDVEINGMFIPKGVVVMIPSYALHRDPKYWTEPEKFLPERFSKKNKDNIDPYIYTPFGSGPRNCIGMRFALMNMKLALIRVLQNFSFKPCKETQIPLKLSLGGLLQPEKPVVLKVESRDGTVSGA
Procedure: as §3, with “CYP3A4” for “CYP2C19”, “2.5” for “15”, “15” for “30”, “solution” for “reactant”, “expressed” for “represented”, “Clotrimazole” for “Tranylcypromine”

human CYP2D6 = biological target: T3, human CYP2D6 (Homo sapiens, UniProt P10635); assay: Inhibitory effect on CYP2D6; format: in vitro ADME; conditions: for pIC50: microsome from insect cells expressing human CYP2D6, fluorescent substrate, 37° C. 30 min, 72 to 0.0329 μmol/L; for Inhibitory effect on CYP2D6 (in words): microsome from insect cells expressing human CYP2D6, 72 to 0.0329 μmol/L
T3 construct: host or cells: insect cells (microsomes)
T3 sequence (P10635 whole entry): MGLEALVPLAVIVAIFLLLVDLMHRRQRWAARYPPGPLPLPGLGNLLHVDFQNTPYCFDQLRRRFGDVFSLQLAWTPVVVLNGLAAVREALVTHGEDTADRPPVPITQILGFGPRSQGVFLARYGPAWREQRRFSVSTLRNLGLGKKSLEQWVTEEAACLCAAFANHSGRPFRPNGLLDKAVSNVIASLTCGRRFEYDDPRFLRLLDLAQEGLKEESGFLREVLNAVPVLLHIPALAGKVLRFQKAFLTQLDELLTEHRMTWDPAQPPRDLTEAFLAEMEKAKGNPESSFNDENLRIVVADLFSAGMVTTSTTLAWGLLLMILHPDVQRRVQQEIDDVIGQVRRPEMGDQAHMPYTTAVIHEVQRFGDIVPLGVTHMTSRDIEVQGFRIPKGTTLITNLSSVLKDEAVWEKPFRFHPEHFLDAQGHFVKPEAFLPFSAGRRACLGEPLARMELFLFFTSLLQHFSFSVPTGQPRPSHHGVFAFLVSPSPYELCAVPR
Procedure: Inhibitory effects of the compound of Example 3, Comparative Compound 1, Comparative Compound 2 and Comparative Compound 3 on human hepatic drug-metabolizing enzyme CYP2D6 were compared. A microsome prepared from insect cells expressing human CYP2D6 was used, and a substrate was 3-[2-(N,N-diethyl-N-methylammonium)ethyl]-7-methoxy-4-methylcoumarin iodide. The reaction was conducted in a phosphate buffer solution (100 mmol/L, pH 7.4) including final concentrations of 20 nmol/L for the enzyme, 1.5 μmol/L for the substrate, 1.55 mmol/L for nicotinamide adenine dinucleotide phosphate oxidized form (NADP+), 3.3 mmol/L for glucose-6-phosphate, 3.3 mmol/L for magnesium chloride and 0.4 Units/mL for glucose-6-phosphate dehydrogenase (G6PDH). The concentrations of the respective compounds in the reaction solution were prepared in a 3-fold dilution series with a final concentration range of 72 to 0.0329 μmol/L. The reaction solutions were incubated at 37° C. for 30 min. Then the reaction was terminated by a 80% acetonitrile solution (containing tris at a final concentration of 0.1 mol/L), and the enzyme activity was determined by measuring fluorescence with wavelength of 465 nm using excitation wavelength of 400 nm. The inhibitory effect was expressed as IC50. Quinidine was used as a positive control.

[2] = Repeated intravenous dose toxicity study in mice (plasma AST, ALT); format: in vivo; conditions: ICR male mice, i.v. once daily for 3 days (25 mg/kg or 6.25 mg/kg), day 1 after completion; relative to saline control
Procedure: As Test Compounds, the compound of Example 3, Comparative Compound 2 and Comparative Compound 3 were used.
A repeated intravenous dose toxicity study was conducted using ICR strain male mice (6 week-old, 5 mice/group). The administration solutions were prepared by adding 3-fold molar amount of hydrochloric acid to the respective Test Compounds, and further adding a sterile physiological saline solution. The compounds of Example 3 and Comparative Compound 2, respectively at 25 mg/kg, and Comparative Compound 1 at 6.25 mg/kg were administered into the tail vein once daily for 3 days. To the control group, a sterile physiological saline solution was administered.
On day 1 after the completion of the administration, each mouse was etherized. Blood samples were taken from the abdominal vein using an injection syringe containing heparin as an anticoagulant (Novo-Heparin 1,000 units for injection, Aventis Pharma Ltd.), and the samples were centrifuged (3,300 rpm, 4° C., 10 min; Kubota Model 5900) to obtain the plasma. The blood biochemical tests with respect to aspartate aminotransferase (AST) and alanine aminotransferase (ALT) for the samples were conducted according to the JSCC consensus measuring method. The values for the Test Compounds and Comparative Compounds were calculated based on the values for the control (administration of a sterile physiological saline solution) as 100.

[3] = Acute toxicity study in mice (intravenous administration); format: in vivo; conditions: male mice, 50 mg/kg single intravenous dose
Procedure: The compound of Example 3 was dissolved in a small amount of 0.1 mol/L hydrochloric acid, and the solution was diluted with a sterile physiological saline solution to obtain a 5 mg/mL solution. The Test Compound solution was administered intravenously to male mice (4 week-old, 2 mice/group) at 10 mL/kg (50 mg/kg body weight) and the mice were observed until day 2 after administration.

[4] = Acute toxicity study in mice (oral administration); format: in vivo; conditions: male mice, 1000 mg/kg single oral dose
Procedure: A 100 mg/mL suspension of the compound of Example 3 was prepared with 0.1 mol/L hydrochloric acid. The Test Compound solution was orally administered to male mice (6 week-old, 2 mice/group) at 10 mL/kg (1000 mg/kg body weight) and the mice were observed until day 2 after administration.

[5] = test system: Aspergillus fumigatus IFM46895; assay: Murine Aspergillus infection model (subcutaneous administration); format: in vivo; conditions: cyclophosphamide-compromised male mice; 0.3 mg/kg subcutaneously, 7 times; observed 21 days after infection
Procedure: (§4) As a Test Compound, the compound of Example 3 was used.
as §1
as §2, with “Test Compound was” for “Test Compounds were”, “sterile physiological saline solution” for “sterile distilled water”, “a 0.03” for “a 1”, “administered subcutaneously” for “administered orally”, “mouse (0.3” for “mouse (10”, “Test Compound,” for “Test Compounds,”

[6] = test system: Candida albicans TIMM 1623; assay: Murine Candida infection model (subcutaneous administration); format: in vivo; conditions: cyclophosphamide-compromised male mice; 0.1 mg/kg subcutaneously, 4 times; observed 21 days after infection
Procedure: as §4
Male mice (4 week-old, 5 mice/group) were administered intraperitoneally with 200 mg/kg of cyclophosphamide 4 days before infection and 100 mg/kg on the following day after the infection to obtain transient compromised condition. Candida albicans TIMM 1623 cultured on SDA at 35° C. was suspended in a sterile physiological saline solution to prepare a suspension at 1.5×10^5 cells/mL. Each 0.2 mL of the solution was inoculated into the tail vein of each mouse to induce infection (about 3×10^4 CFU/mouse). The Test Compound was dissolved in a small amount of 0.1 mol/L hydrochloric acid, and the solution was diluted with a sterile physiological saline solution to obtain a 0.01 mg/mL solution. The solution was administered subcutaneously at the dose of 10 mL/kg body weight of mouse (0.1 mg/kg body weight). The administrations were conducted once 2 hours after the infection and once daily for the following consecutive 3 days, totaling 4 times. To a group receiving no Test Compound, an equal amount of a sterile physiological saline solution was administered. Viability of the mice was observed and recorded for 21 days after infection.

SMILES: N/C(=N\C(=O)OCc1ccccc1)c1ccc(OCCCN2CCN(CCCOc3ccc(/C(N)=N/C(=O)OCc4ccccc4)cc3)CC2)cc1 [Comparative Compound 1, reference compound]
- mice survived [1]: 20%
- pIC50 (human CYP2C19): 5.36
- Cytotoxicity T/C (%) (Vero cells): 1%
- pIC50 (human CYP3A4): 5.33
- pIC50 (human CYP2D6): 6.17

- Inhibitory effect on CYP2D6 (in words) (human CYP2D6): inhibited human CYP2D6
SMILES: CCOC(=O)/N=C(\N)c1ccc(OCCCC2CCN(CCCOc3ccc(/C(N)=N/C(=O)OCC)cc3)CC2)cc1 [Comparative Compound 2]
- ALT (alanine aminotransferase) in plasma [2]: increases
- AST (aspartate aminotransferase) in plasma [2]: increases

- Inhibitory effect on CYP2D6 (in words) (human CYP2D6): inhibited human CYP2D6
SMILES: CCCCCOC(=O)/N=C(\N)c1ccc(OCCCN2CCC(CCCOc3ccc(C(N)NC(=O)OCCCCC)cc3)CC2)cc1 (centres unmarked) [Comparative Compound 3]
- ALT (alanine aminotransferase) in plasma [2]: increases
- AST (aspartate aminotransferase) in plasma [2]: increases

SMILES: CCCOC(=O)/N=C(\N)c1ccc(OCCCC2CCN(CCCOc3ccc(/C(N)=N/C(=O)OCCC)cc3)CC2)cc1 [Example 1, 4-{3-[4-(3-{4-[amino(propoxycarbonylimino)methyl]phenoxy}propyl)-1-piperidinyl]propoxy}-N′-(propoxycarbonyl)benzamidine]
- Cytotoxicity T/C (%) (Vero cells): 100%

SMILES: CC(C)OC(=O)/N=C(\N)c1ccc(OCCCC2CCN(CCCOc3ccc(/C(N)=N/C(=O)OC(C)C)cc3)CC2)cc1 [Example 2, 4-{3-[4-(3-{4-[amino(isopropoxycarbonylimino)methyl]phenoxy}propyl)-1-piperidinyl]propoxy}-N′-(isopropoxycarbonyl)benzamidine]
- Cytotoxicity T/C (%) (Vero cells): 100%

SMILES: CCCCOC(=O)N=C(N)c1ccc(OCCCC2CCN(CCCOc3ccc(C(N)=NC(=O)OCCCC)cc3)CC2)cc1 [Example 3, 4-{3-[4-(3-{4-[amino(butoxycarbonylimino)methyl]phenoxy}propyl)-1-piperidinyl]propoxy}-N′-(butoxycarbonyl)benzamidine]
- mice survived [1]: 80%
- pIC50 (human CYP2C19): < 4.14
- survival until day 2 after administration [3]: all mice survived
- survival until day 2 after administration [4]: all mice survived
- ALT (alanine aminotransferase) in plasma [2]: No abnormality
- AST (aspartate aminotransferase) in plasma [2]: No abnormality
- mice survived [5]: 60%
- pIC50 (human CYP3A4): 4.34
- mice survived [6]: 80%
- pIC50 (human CYP2D6): < 4.14
